Results as given in patent US11628133B2, “Uses of the peptide of sequence His-D-Trp-Ala-Trp-d-Phe-Lys-NH2 for reducing or delaying the appearance of cell senescence and signs of skin aging” (ISP INVESTMENTS LLC, priority 2015, dated 2023).
One block for each compound: values may come before it. Where no end group is shown, it is not given here. [ ]: non-standard residue; d: D form.

How the values were obtained:
prolidase [1] = test: Activity of prolidase in human fibroblasts (Gly-Pro substrate, Chinard's reagent); format: cell-based; details: untreated = 100
Description: Protocol: Cultured human fibroblasts were treated with hexapeptide-2 in a concentration of 0.5 and 1 μM after dilution in a culture medium, for 24 hours (2 applications per day). At the same time, fibroblasts were treated with an activator and an inhibitor of prolidase: retinoic acid (Sigma, Ref. R2625) and Cpz-Pro (Bachem, Ref. 4001343). Next, the cells were detached from the dish with the aid of a 150 mM NaCl solution. After having recovered the cellular pellet and activating the prolidase with a solution containing 2 mM MnCl2 for 2 hours at 37° C., the prolidase substrate was added: 47 mM of Glycine-Proline (Sigma, Ref. G3002) for 1 hour at 37° C. Next, the amount of proline contained in each sample was determined at a wavelength of 515 nm using Chinard's reagent. At the same time, a proline concentration range was produced in order to establish a calibration curve. The amount of protein was determined using the BCA protein assay kit (Thermo Scientific, Ref. 23225), which enabled the ratio of proline to the number of proteins in each sample to be recorded.

collagen I [2] = test: Expression of intracellular collagen I in human fibroblasts by flow cytometry; format: cell-based; details: untreated = 100
Description: Protocol: Cultured human fibroblasts were treated with hexapeptide-2 in a concentration of 0.5 and 1 μM after dilution in a culture medium, for 48 hours (2 applications per day). At the same time, fibroblasts were treated with an activator for collagen I: TGF-β (R&D system, Ref. 240B). The fibroblasts were trypsinated and the cellular pellet was recovered. The cells were then fixed with cold methanol for 15 minutes at 4° C. Immunolabelling was carried out with the aid of a mouse monoclonal antibody specific for collagen I (Millipore, Ref: anti-Collagen Type I, Clone: 5D8-G9) coupled with a fluorochrome. Next, 10 000 cells were analysed by flow cytometry (Guava EasyCyte) in order to determine the amount of fluorescence in each of them.

[3] = tested on: human fibroblasts made senescent by replicative senescence; test: Activity of β-galactosidase in human fibroblasts made senescent by replicative senescence (long-term treatment); format: cell-based; details: 1 μM daily, long-term (about 3 months), general over passes
Description: Protocol: Human fibroblasts were cultured in a specific medium and maintained under culture (for more than 27 passes) and treated or not treated with a daily application of hexapeptide-2 in a concentration of 1 μM in the culture medium, (i.e. 5 applications per week). A portion of the cells was frozen in each pass. Next, key passes were selected: passes 4, 12, 16, 20, 24 and 27. After freezing, the senescent phenotype of the fibroblasts treated or not treated with 1 μM hexapeptide-2 was evaluated by assaying the activity of β-galactosidase.
(§1) To this end, the cells were rinsed and fixed in a fixing buffer (0.2% glutaraldehyde, 2% formaldehyde). The cells were then incubated, at 37° C. without CO2 for 24 hours, with a solution of 1 mg/mL X-Gal in 40 mM of citric acid/phosphate (pH 6), 5 mM K3FeCN6, 5 mM K4FeCN6, 150 mM NaCl and 2 mM MgCl2. The cells were then examined under white light with a microscope (Nikon Eclipse E600 microscope).

miRNA-29a 3p [4] = test: Expression of miRNA-29a 3p in human fibroblasts made senescent by replicative senescence (long-term treatment); format: cell-based
Description: Protocol: Human fibroblasts were cultured in a specific medium and maintained under a long-term culture treatment (for more than 24 passes, i.e. approximately 3 months), treated or not treated by means of a daily application of hexapeptide-2 in a concentration of 1 μM in culture medium, (5 applications per week). For each pass, a portion of the cells was frozen. Next, three passes were selected: passes 4, 12 and 24.
The miRNAs were extracted with the aid of an extraction kit (Ambion, Ref AMI1561), then reverse transcribed with a specific kit (Applied Biosystems, Ref 4374966). A real-time PCR was carried out in a thermocycler with the aid of a TaqMan Gene Expression Assay specific for miRNA-29a 3p (Applied Biosystems, 002112) and a TaqMan Gene Expression Assay specific for RNU44 used as an endogenic control (Applied Biosystems, 001094). The relative quantification of the expression of miRNA-29a 3p was carried out using the comparative Ct method.

[5] = tested on: senescent human fibroblasts by replicative senescence; test: Activity of β-galactosidase in senescent human fibroblasts by replicative senescence (short-term treatment); format: cell-based; details: 1 μM, 48 hours, general over passes
Description: Protocol: Human fibroblasts were cultured in a specific medium and maintained under long-term culture treatment (for more than 28 passes, i.e. approximately 3 months). A portion of the cells was frozen in each pass. Next, key passes were selected: passes 4, 12, 16, 20 and 28. After freezing, the fibroblasts were treated with 1 μM hexapeptide-2 in culture medium, for 48 hours (2 applications per day). The senescent phenotype of the fibroblasts treated or not treated with 1 μM hexapeptide-2 was evaluated by assaying the activity of the β-galactosidase.
as §1

miRNA-29a 3p [6] = test: Expression of miRNA-29a 3p in human fibroblasts from donors of different ages (qPCR); format: cell-based; details: overnight, concentration (0.5 or 1 μM) not stated
Description: Protocol: Human fibroblasts from 3 donors were treated with hexapeptide-2 in a concentration of 0.5 and 1 μM in culture medium overnight (1 application).
The miRNAs were extracted with the aid of an extraction kit (Ambion, Ref. AM1561), then reverse transcribed with a specific kit (Applied Biosystem, Ref 4374966). A real time PCR was carried out in a thermocycler using a TaqMan Gene Expression Assay specific for miRNA-29a 3p (Applied Biosystems, Ref 002112) and a TaqMan Gene Expression Assays specific for RNU44 used as the control endogen (Applied Biosystems, Ref. 001094). The relative quantification if the expression of miRNA-29a 3p was carried out by the comparative Ct method.

prolidase [7] = test: Expression of prolidase in human fibroblasts (immunofluorescence); format: cell-based; details: 24 hours, 2 applications per day, untreated = 100
Description: Protocol: Cultured human fibroblasts were treated with hexapeptide-2 in a final concentration of 0.5 and 1 μM after dilution in a culture medium, for 24 hours (2 applications per day). The cells were then washed, fixed with cold methanol for 4 minutes at 4° C. The cells were incubated in the presence of a mouse monoclonal antibody specific for prolidase (LifeSpan BioSciences, Ref. LS-C115644), then of an anti-mouse secondary antibody coupled to a fluorochrome (Invitrogen, Ref. A21202). The cells were then examined under an epifluorescence microscope (Zeiss Axiovert 200M microscope). Quantification of the fluorescence was carried out from the photographs obtained.

collagen III = test: Expression of collagen III in human skin in ex vivo culture; format: cell-based; details: 48 hours, untreated = 100
Description: (§2) Protocol: Samples of human skin were cultured at the air/liquid interface. Hexapeptide-2 was applied topically to the samples in concentrations of 0.5 and 1 μM after dilution in a culture medium, in an amount of 2 applications per day, then the samples were incubated for 48 hours at 37° C.
(§3) These skin samples were subsequently fixed with formaldehyde then included into paraffin. 4 μm sections were then produced.
(§4) Labelling of the collagens I and III was then carried out after demasking specific sites by microwave incubation then by treatment with trypsin. The immunolabelling was carried out with the aid of a rabbit polyclonal antibody specific for collagen I (Rockland, Ref. 600-401-103-0.5), a rabbit polyclonal antibody specific for collagen III (Rockland, Ref 600-401-105-0.5), then an anti-rabbit secondary antibody coupled to a fluorochrome (Invitrogen, Ref. A21206). The cells were then examined under an epifluorescence microscope (Zeiss Axiovert 200M microscope). A quantification of the fluorescence from the photographs obtained was carried out.

collagen = details: concentrations of 1 μM, 10 μM and 100 μM; cited from earlier work
prolidase [8] = test: Activity of prolidase in human fibroblasts made senescent by replicative senescence (long-term treatment); format: cell-based; details: 1 μM daily long-term
Description: Protocol: Human fibroblasts were cultured in a specific medium and maintained under long-term culture treatment (for more than 20 passes, i.e. approximately 3 months), treated or not treated with the aid of a daily application of hexapeptide-2 in a concentration of 1 μM in culture medium, (5 applications per week). A portion of the cells was frozen for each pass. Next, two passes were selected: passes 12 and 20.
To this end, the cells were detached from their support with a solution of 150 mM NaCl. After recovering the cellular pellet and activating the prolidase with a solution containing 2 mM of MnCl2 for 2 hours at 37° C., the substrate for the prolidase was added: 47 mM of Glycine-Proline (Sigma, Ref. G3002), for 1 hour at 37° C. Next, the proline content contained in each sample was determined at a wavelength of 515 nm using Chinard's reagent. At the same time, a concentration range for proline was produced in order to establish a calibration curve. The protein content was determined using the BCA protein assay kit (Thermo Scientific, Ref. 23225), in order to relate the proline content with the number of proteins in each sample.

collagen I [9] = test: Expression of collagen I in human fibroblasts made senescent by transfection with the siRNA FOXO3a; format: cell-based; details: 0.5 or 1 μM, 48 hours, siRNA FOXO3a transfected cells
Description: Protocol: Cultured human fibroblasts were treated or not treated with a specific siRNA of FOXO3a (Invitrogen, Ref. HSS177176) in a final concentration of 25 nM using the technique of transfection by Lipofectamine™ RNAiMAX (Invitrogen, Ref. 56531) and treated or not treated with hexapeptide-2 in a concentration of 0.5 or 1 μM in culture medium, for 48 hours (2 applications per day).
The fibroblasts were trypsinated and the cellular pellet was recovered. The cells were then fixed with cold methanol for 15 minutes at 4° C. Immunolabelling was carried out with the aid of a mouse monoclonal antibody specific for collagen I (Millipore, Ref. anti-Collagen Type I, Clone: 5D8-G9) coupled with a fluorochrome. Next, 10 000 cells were analysed using flow cytometry (Guava EasyCyte) in order to determine the level of fluorescence in each of them.

collagen I [10] = test: Expression of collagen I in human skin in ex vivo culture; format: cell-based; details: 48 hours, untreated = 100
Description: as §2, §3, §4

[11] = tested on: human fibroblasts made senescent by transfection with the siRNA FOXO3a; test: Activity of β-galactosidase in human fibroblasts made senescent by transfection with the siRNA FOXO3a; format: cell-based; details: 1 μM, 48 hours, siRNA FOXO3a transfected cells; results not shown
Description: Protocol: Cultured human fibroblasts were treated or not treated with a specific siRNA of FOXO3a (Invitrogen, Ref. HSS177176) in a final concentration of 25 nM using the technique of transfection by Lipofectamine™ RNAiMAX (Invitrogen, Ref 56531) and treated or not treated with hexapeptide-2 in a final concentration of 1 μM in culture medium, for 48 hours (2 applications per day).
as §1, with “The” for “To this end, the”, “incubated” for “incubated,”

Activity of prolidase (%) (prolidase [1]; 10 mM): 90%
Compound: O=C(O)[C@@H]1CCCN1C(=O)OCc1ccccc1 [Cpz-Pro, reference compound]

Compound: CC1=C(/C=C/C(C)=C/C=C/C(C)=C/C(=O)O)C(C)(C)CCC1 [retinoic acid, reference compound]
Activity of prolidase (%) (prolidase [1]; 1 μM, 24 hours): 105%

Activity of prolidase (%) (prolidase [1]; 0.5 μM, 24 hours): 122%
Activity of prolidase (%) (prolidase [1]; 1 μM, 24 hours): 114%
effect on activity of prolidase (prolidase [8]; young cells (P12)): little or no effect
Compound: His-D-Trp-Ala-Trp-D-Phe-Lys-NH2 (H[dW]AW[dF]K-NH2) [hexapeptide-2]
Expression of collagen I (%) (collagen I [2]; 0.5 μM, 48 hours): 120%
Expression of collagen I (%) (collagen I [2]; 1 μM, 48 hours): 145%
reduction in the activity of beta-galactosidase compared with untreated cells [3]: −22%
effect on the expression of miRNA-29a 3p (miRNA-29a 3p [4]; pass 4, 1 μM daily long-term): no effect
reduction in the expression of miRNA-29a 3p (miRNA-29a 3p [4]; pass 12, 1 μM daily long-term): −16%
reduction in the expression of miRNA-29a 3p (miRNA-29a 3p [4]; pass 24, 1 μM daily long-term): −7%
reduction in the activity of the β-galactosidase compared with untreated cells [5]: −31%
reduction in the expression of miRNA-29a 3p (miRNA-29a 3p [6]; fibroblasts of donor one): −14%
reduction in the expression of miRNA-29a 3p (miRNA-29a 3p [6]; fibroblasts of donor three): −27%
reduction in the expression of miRNA-29a 3p (miRNA-29a 3p [6]; fibroblasts of donor two): −13%
Expression of prolidase (intensity/area of cells (%)) (prolidase [7]; 0.5 μM): 118%
Expression of prolidase (intensity/area of cells (%)) (prolidase [7]; 1 μM): 128%
Expression of Collagen III (%) (collagen III; 0.5 μM topical): 155%
Expression of Collagen III (%) (collagen III; 1 μM topical): 155%
effect on the secretion of collagen by fibroblasts cultured in vitro (collagen): no effect
restoration in the activity of prolidase compared with untreated control cells in the same pass (prolidase [8]; senescent cells (P20)): 20%
expression of collagen I in senescent cells (collagen I [9]): smaller reduction in the expression of collagen I
Expression of collagen I (%) (collagen I [10]; 0.5 μM topical): 119%
Expression of collagen I (%) (collagen I [10]; 1 μM topical): 154%
activity of β-galactosidase linked to senescence (number of blue-stained cells) [11]: visible reduction in the activity of β-galactosidase

Compound: TGF-β: activator for collagen I (R&D system, Ref. 240B)
Expression of collagen I (%) (collagen I [2]; 10 ng/ml): 182%
